In the kinase profiling compilation of Christmann-Franck et al. (2016):

Legend:
Experiment in all cases: radiometric filter-binding kinase assay, Kinase HotSpot
Conditions in all cases: compound 0.5 µM; ATP 10 µM
INSR (human) = INSR (human) (UniProt P06213)
NEK6 (human) = NEK6 (human) (UniProt Q9HC98)
DMPK (human) = DMPK (human) (UniProt Q09013)
NTRK3 (human) = NTRK3 (human) (UniProt Q16288)
PIM2 (human) = PIM2 (human) (UniProt Q9P1W9)
MAP4K4 (human) = MAP4K4 (human) (UniProt O95819)
MAPKAPK5 (human) = MAPKAPK5 (human) (UniProt Q8IW41)
AURKB (human) = AURKB (human) (UniProt Q96GD4)
TXK (human) = TXK (human) (UniProt P42681)
STK3 (human) = STK3 (human) (UniProt Q13188)
AXL (human) = AXL (human) (UniProt P30530)
Sequence of AXL (human) (P30530 whole entry, looked up): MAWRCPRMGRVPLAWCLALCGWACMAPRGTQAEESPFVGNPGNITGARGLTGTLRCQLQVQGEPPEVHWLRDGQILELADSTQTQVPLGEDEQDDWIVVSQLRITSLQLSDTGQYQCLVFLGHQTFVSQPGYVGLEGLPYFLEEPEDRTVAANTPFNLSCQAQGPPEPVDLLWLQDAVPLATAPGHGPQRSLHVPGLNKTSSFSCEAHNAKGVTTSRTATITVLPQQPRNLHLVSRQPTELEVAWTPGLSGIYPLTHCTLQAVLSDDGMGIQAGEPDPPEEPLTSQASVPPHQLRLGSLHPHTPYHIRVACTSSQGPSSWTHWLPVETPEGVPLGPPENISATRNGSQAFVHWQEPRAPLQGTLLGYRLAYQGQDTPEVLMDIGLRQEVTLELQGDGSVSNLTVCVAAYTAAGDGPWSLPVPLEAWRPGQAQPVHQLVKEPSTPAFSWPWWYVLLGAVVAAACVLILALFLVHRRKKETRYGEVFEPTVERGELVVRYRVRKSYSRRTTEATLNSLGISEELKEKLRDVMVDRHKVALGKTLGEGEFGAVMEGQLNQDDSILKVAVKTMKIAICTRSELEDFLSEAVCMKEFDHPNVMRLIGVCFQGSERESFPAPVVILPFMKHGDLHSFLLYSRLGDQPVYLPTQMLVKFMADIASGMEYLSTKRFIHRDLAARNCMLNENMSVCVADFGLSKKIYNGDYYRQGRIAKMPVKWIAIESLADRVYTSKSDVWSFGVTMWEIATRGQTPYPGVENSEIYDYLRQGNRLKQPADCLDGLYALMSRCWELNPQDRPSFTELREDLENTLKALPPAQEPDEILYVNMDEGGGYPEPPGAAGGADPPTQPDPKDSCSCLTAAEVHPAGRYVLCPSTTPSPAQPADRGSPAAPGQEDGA

AKT2 (human) = AKT2 (human) (UniProt P31751)
Sequence of AKT2 (human) (P31751 whole entry, looked up): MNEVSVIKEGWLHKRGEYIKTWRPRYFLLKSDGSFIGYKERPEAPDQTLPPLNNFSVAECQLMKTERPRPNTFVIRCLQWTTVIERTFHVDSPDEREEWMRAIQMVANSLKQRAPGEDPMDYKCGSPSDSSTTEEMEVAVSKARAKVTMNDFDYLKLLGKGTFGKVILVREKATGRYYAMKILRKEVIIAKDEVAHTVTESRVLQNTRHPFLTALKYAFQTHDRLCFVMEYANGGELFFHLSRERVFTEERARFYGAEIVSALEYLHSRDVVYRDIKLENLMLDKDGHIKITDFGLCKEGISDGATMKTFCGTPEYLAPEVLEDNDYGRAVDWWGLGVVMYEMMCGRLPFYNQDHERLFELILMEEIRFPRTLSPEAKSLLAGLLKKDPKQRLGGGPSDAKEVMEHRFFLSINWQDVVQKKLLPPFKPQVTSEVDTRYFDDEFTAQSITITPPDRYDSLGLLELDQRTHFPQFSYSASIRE

CSNK1G2 (human) = CSNK1G2 (human) (UniProt P78368)
FES (human) = FES (human) (UniProt P07332)
Sequence of FES (human) (P07332 whole entry, looked up): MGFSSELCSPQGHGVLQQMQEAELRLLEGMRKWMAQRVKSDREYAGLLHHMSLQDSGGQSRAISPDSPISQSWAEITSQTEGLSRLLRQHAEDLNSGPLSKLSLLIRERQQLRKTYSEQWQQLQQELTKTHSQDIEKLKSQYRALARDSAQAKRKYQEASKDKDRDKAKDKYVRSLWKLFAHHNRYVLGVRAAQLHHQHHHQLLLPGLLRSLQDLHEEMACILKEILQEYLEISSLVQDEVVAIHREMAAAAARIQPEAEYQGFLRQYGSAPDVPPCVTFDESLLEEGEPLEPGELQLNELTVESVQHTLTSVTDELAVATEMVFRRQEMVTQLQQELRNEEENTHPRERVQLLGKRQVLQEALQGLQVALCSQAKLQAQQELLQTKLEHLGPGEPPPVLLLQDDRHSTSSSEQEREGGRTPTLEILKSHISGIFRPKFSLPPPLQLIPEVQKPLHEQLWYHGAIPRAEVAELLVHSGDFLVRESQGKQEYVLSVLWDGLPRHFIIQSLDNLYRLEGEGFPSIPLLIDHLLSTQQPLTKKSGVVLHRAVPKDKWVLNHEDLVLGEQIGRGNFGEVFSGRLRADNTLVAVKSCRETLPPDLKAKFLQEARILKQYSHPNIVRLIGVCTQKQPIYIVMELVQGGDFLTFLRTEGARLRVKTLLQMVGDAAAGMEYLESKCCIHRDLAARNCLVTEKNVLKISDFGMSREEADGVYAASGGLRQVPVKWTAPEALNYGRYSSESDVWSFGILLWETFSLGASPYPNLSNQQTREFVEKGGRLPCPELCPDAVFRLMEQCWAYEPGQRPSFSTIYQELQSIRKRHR

EPHB4 (human) = EPHB4 (human) (UniProt P54760)
Sequence of EPHB4 (human) (P54760 whole entry, looked up): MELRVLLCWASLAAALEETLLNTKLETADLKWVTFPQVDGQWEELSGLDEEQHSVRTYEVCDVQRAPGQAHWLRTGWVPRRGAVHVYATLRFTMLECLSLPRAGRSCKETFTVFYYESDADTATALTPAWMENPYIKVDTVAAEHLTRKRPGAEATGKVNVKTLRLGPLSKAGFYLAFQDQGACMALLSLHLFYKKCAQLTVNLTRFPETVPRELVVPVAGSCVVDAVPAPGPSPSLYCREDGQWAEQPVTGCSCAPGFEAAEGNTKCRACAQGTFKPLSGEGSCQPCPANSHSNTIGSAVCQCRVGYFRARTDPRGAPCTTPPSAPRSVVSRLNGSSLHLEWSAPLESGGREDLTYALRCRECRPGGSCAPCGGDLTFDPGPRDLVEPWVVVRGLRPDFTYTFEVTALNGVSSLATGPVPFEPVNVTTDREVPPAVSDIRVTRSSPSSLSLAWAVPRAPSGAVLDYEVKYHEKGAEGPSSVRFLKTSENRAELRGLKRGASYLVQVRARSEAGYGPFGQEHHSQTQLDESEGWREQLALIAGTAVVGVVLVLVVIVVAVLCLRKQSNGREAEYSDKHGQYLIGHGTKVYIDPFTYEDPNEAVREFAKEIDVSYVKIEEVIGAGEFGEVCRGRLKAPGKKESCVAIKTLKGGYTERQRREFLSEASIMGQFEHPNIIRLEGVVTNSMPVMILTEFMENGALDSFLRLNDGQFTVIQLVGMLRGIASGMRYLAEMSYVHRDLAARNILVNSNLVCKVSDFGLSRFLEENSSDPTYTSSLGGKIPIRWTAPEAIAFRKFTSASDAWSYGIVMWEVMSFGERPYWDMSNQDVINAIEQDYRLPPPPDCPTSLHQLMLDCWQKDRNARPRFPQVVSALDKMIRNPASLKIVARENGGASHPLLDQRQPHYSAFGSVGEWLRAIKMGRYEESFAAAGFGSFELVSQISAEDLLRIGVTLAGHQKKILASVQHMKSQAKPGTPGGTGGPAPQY

EPHA3 (human) = EPHA3 (human) (UniProt P29320)
CAMKK1 (human) = CAMKK1 (human) (UniProt Q8N5S9)
DYRK1B (human) = DYRK1B (human) (UniProt Q9Y463)
AURKA (human) = AURKA (human) (UniProt O14965)
TAOK1 (human) = TAOK1 (human) (UniProt Q7L7X3)
Sequence of TAOK1 (human) (Q7L7X3 whole entry, looked up): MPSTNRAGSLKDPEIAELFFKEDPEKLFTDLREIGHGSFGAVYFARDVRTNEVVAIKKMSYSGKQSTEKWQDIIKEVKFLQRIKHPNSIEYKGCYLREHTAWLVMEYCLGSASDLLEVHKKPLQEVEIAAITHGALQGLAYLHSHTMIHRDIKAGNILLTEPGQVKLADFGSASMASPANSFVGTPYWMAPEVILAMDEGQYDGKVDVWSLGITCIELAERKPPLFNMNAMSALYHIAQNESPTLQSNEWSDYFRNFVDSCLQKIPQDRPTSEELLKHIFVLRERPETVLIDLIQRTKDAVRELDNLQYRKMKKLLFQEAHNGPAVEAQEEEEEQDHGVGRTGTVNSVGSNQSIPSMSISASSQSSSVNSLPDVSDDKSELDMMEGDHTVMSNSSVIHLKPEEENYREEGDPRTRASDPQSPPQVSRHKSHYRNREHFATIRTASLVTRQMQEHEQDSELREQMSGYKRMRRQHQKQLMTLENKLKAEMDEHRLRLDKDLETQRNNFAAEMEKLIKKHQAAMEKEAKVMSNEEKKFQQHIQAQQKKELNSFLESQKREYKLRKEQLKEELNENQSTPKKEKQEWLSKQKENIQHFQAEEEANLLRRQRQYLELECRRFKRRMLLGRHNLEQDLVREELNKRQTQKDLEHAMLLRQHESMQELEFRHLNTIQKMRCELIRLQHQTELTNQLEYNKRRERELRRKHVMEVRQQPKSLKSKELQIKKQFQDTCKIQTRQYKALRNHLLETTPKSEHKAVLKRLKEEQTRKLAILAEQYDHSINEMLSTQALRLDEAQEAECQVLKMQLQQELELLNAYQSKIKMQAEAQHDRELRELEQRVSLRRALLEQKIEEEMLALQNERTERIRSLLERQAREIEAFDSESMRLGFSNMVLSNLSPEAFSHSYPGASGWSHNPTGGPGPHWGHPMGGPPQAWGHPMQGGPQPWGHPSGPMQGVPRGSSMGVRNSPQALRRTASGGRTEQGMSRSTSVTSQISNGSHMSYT

NUAK1 (human) = NUAK1 (human) (UniProt O60285)
MAP3K3 (human) = MAP3K3 (human) (UniProt Q99759)
FGFR1 (human) = FGFR1 (human) (UniProt P11362)
DAPK2 (human) = DAPK2 (human) (UniProt Q9UIK4)
TTK (human) = TTK (human) (UniProt P33981)
MAPKAPK2 (human) = MAPKAPK2 (human) (UniProt P49137)
MAPK12 (human) = MAPK12 (human) (UniProt P53778)
CAMK1G (human) = CAMK1G (human) (UniProt Q96NX5)
STK16 (human) = STK16 (human) (UniProt O75716)
IRAK4 (human) = IRAK4 (human) (UniProt Q9NWZ3)
FGR (human) = FGR (human) (UniProt P09769)
PRKCB1 (human) = PRKCB1 (human) (UniProt P05771)
PTK6 (human) = PTK6 (human) (UniProt Q13882)
DYRK2 (human) = DYRK2 (human) (UniProt Q92630)
CSNK1G3 (human) = CSNK1G3 (human) (UniProt Q9Y6M4)
MARK2 (human) = MARK2 (human) (UniProt Q7KZI7)
STK4 (human) = STK4 (human) (UniProt Q13043)
NEK3 (human) = NEK3 (human) (UniProt P51956)
PRKCZ (human) = PRKCZ (human) (UniProt Q05513)
Sequence of PRKCZ (human) (Q05513 whole entry, looked up): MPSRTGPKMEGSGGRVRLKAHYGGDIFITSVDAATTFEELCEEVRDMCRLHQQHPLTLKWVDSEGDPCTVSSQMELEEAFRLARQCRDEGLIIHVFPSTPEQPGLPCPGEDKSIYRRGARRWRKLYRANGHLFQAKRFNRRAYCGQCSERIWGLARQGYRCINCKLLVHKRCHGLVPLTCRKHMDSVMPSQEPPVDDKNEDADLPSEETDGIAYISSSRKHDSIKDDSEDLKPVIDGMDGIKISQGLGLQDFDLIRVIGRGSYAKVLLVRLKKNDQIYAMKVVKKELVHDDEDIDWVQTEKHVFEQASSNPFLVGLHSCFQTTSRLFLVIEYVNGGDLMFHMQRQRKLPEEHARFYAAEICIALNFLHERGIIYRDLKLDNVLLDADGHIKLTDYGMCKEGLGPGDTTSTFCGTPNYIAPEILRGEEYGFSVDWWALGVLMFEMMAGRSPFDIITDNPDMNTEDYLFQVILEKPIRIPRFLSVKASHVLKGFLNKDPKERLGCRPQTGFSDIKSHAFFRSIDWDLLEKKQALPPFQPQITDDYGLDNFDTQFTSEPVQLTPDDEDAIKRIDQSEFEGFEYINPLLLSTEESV

LCK (human) = LCK (human) (UniProt P06239)
CDK7 CCNH MNAT1 (human) = CDK7 CCNH MNAT1 (human) (UniProt P50613+P51948+P51946)
AKT1 (human) = AKT1 (human) (UniProt P31749)

NC(=O)c1cccc(-c2cc(Nc3ccc(OC(F)(F)F)cc3)ncn2)c1
residual activity (INSR (human)): 105% | residual activity (NEK6 (human)): 97.4% | residual activity (DMPK (human)): 96.1% | residual activity (NTRK3 (human)): 92.7% | residual activity (PIM2 (human)): 115% | residual activity (MAP4K4 (human)): 104% | residual activity (MAPKAPK5 (human)): 94.3% | residual activity (AURKB (human)): 96.9% | residual activity (TXK (human)): 111% | residual activity (STK3 (human)): 93.6% | residual activity (AXL (human)): 101% | residual activity (AKT2 (human)): 105% | residual activity (CSNK1G2 (human)): 89.5% | residual activity (FES (human)): 96.3% | residual activity (EPHB4 (human)): 90.6% | residual activity (EPHA3 (human)): 97.5% | residual activity (CAMKK1 (human)): 103% | residual activity (DYRK1B (human)): 97.9% | residual activity (AURKA (human)): 107% | residual activity (TAOK1 (human)): 92.9% | residual activity (NUAK1 (human)): 96.7% | residual activity (MAP3K3 (human)): 104% | residual activity (FGFR1 (human)): 96.9% | residual activity (DAPK2 (human)): 99.1% | residual activity (TTK (human)): 91.4% | residual activity (MAPKAPK2 (human)): 97.3% | residual activity (MAPK12 (human)): 111% | residual activity (CAMK1G (human)): 98.1% | residual activity (STK16 (human)): 81.8% | residual activity (IRAK4 (human)): 159% | residual activity (FGR (human)): 96.8% | residual activity (PRKCB1 (human)): 97.4% | residual activity (PTK6 (human)): 94.5% | residual activity (DYRK2 (human)): 78.7% | residual activity (CSNK1G3 (human)): 93.4% | residual activity (MARK2 (human)): 90.8% | residual activity (STK4 (human)): 88.7% | residual activity (NEK3 (human)): 121% | residual activity (PRKCZ (human)): 100% | residual activity (LCK (human)): 93.3%

CCCCc1c(-c2ccc(OC)cc2)[nH]c2nccnc12
residual activity (INSR (human)): 97.6% | residual activity (NEK6 (human)): 111% | residual activity (DMPK (human)): 84.3% | residual activity (NTRK3 (human)): 84.4% | residual activity (PIM2 (human)): 115% | residual activity (MAP4K4 (human)): 66.5% | residual activity (MAPKAPK5 (human)): 95.3% | residual activity (AURKB (human)): 64.5% | residual activity (TXK (human)): 72.7% | residual activity (CDK7 CCNH MNAT1 (human)): 92.6% | residual activity (STK3 (human)): 87% | residual activity (AXL (human)): 110% | residual activity (AKT2 (human)): 93.8% | residual activity (CSNK1G2 (human)): 92.5% | residual activity (FES (human)): 66% | residual activity (EPHB4 (human)): 89.5% | residual activity (EPHA3 (human)): 91.9% | residual activity (CAMKK1 (human)): 105% | residual activity (DYRK1B (human)): 94.5% | residual activity (AURKA (human)): 25.5% | residual activity (TAOK1 (human)): 87% | residual activity (NUAK1 (human)): 25% | residual activity (MAP3K3 (human)): 99.8% | residual activity (FGFR1 (human)): 83.3% | residual activity (DAPK2 (human)): 101% | residual activity (AKT1 (human)): 113% | residual activity (TTK (human)): 87.9% | residual activity (MAPKAPK2 (human)): 90.2% | residual activity (MAPK12 (human)): 102% | residual activity (CAMK1G (human)): 102% | residual activity (STK16 (human)): 58.7% | residual activity (IRAK4 (human)): 163% | residual activity (FGR (human)): 57.1% | residual activity (PRKCB1 (human)): 99.4% | residual activity (PTK6 (human)): 30.4% | residual activity (DYRK2 (human)): 92.9% | residual activity (CSNK1G3 (human)): 89.2% | residual activity (MARK2 (human)): 83.1% | residual activity (STK4 (human)): 82.2% | residual activity (NEK3 (human)): 99.1% | residual activity (PRKCZ (human)): 93.9% | residual activity (LCK (human)): 85%

COc1ccc2c(c1)/C(=C/c1cnc[nH]1)C(O)=N2
residual activity (NEK6 (human)): 98.2% | residual activity (DMPK (human)): 104% | residual activity (NTRK3 (human)): 9.35% | residual activity (PIM2 (human)): 97.2% | residual activity (MAP4K4 (human)): 19.4% | residual activity (MAPKAPK5 (human)): 95.2% | residual activity (AURKB (human)): 40% | residual activity (TXK (human)): 93.5% | residual activity (CDK7 CCNH MNAT1 (human)): 84.2% | residual activity (STK3 (human)): 12.2% | residual activity (AXL (human)): 94.3% | residual activity (AKT2 (human)): 106% | residual activity (CSNK1G2 (human)): 95.3% | residual activity (FES (human)): 97% | residual activity (EPHB4 (human)): 91.1% | residual activity (EPHA3 (human)): 93.3% | residual activity (CAMKK1 (human)): 91.3% | residual activity (DYRK1B (human)): 53.1% | residual activity (AURKA (human)): 69% | residual activity (TAOK1 (human)): 82.3% | residual activity (NUAK1 (human)): 8.87% | residual activity (MAP3K3 (human)): 84.2% | residual activity (FGFR1 (human)): 73.2% | residual activity (DAPK2 (human)): 97.3% | residual activity (AKT1 (human)): 100% | residual activity (TTK (human)): 59.9% | residual activity (MAPKAPK2 (human)): 99.4% | residual activity (MAPK12 (human)): 95.5% | residual activity (CAMK1G (human)): 95.6% | residual activity (STK16 (human)): 76.2% | residual activity (IRAK4 (human)): 92.2% | residual activity (FGR (human)): 80.4% | residual activity (PRKCB1 (human)): 112% | residual activity (PTK6 (human)): 87.7% | residual activity (DYRK2 (human)): 76.9% | residual activity (CSNK1G3 (human)): 103% | residual activity (MARK2 (human)): 50% | residual activity (STK4 (human)): 5.67% | residual activity (NEK3 (human)): 87.8% | residual activity (PRKCZ (human)): 107% | residual activity (LCK (human)): 92%

O=C1C(Cl)=C(N2C(=O)CCC2=O)C(=O)c2ccccc21
residual activity (INSR (human)): 105% | residual activity (NEK6 (human)): 104% | residual activity (DMPK (human)): 98.5% | residual activity (NTRK3 (human)): 98.6% | residual activity (PIM2 (human)): 123% | residual activity (MAP4K4 (human)): 93.7% | residual activity (MAPKAPK5 (human)): 73.6% | residual activity (AURKB (human)): 103% | residual activity (TXK (human)): 95.5% | residual activity (CDK7 CCNH MNAT1 (human)): 101% | residual activity (STK3 (human)): 98.2% | residual activity (AKT2 (human)): 96.3% | residual activity (CSNK1G2 (human)): 99.3% | residual activity (FES (human)): 97.5% | residual activity (EPHB4 (human)): 98.7% | residual activity (EPHA3 (human)): 105% | residual activity (CAMKK1 (human)): 112% | residual activity (DYRK1B (human)): 103% | residual activity (AURKA (human)): 105% | residual activity (TAOK1 (human)): 83.1% | residual activity (NUAK1 (human)): 105% | residual activity (MAP3K3 (human)): 95.5% | residual activity (FGFR1 (human)): 99.5% | residual activity (DAPK2 (human)): 133% | residual activity (AKT1 (human)): 103% | residual activity (TTK (human)): 108% | residual activity (MAPKAPK2 (human)): 105% | residual activity (MAPK12 (human)): 100% | residual activity (CAMK1G (human)): 98.2% | residual activity (STK16 (human)): 100% | residual activity (IRAK4 (human)): 89.1% | residual activity (FGR (human)): 102% | residual activity (PRKCB1 (human)): 92.1% | residual activity (PTK6 (human)): 94.8% | residual activity (DYRK2 (human)): 98.6% | residual activity (CSNK1G3 (human)): 93.5% | residual activity (MARK2 (human)): 79.4% | residual activity (STK4 (human)): 89.1% | residual activity (NEK3 (human)): 102% | residual activity (PRKCZ (human)): 114% | residual activity (LCK (human)): 106%

Cn1c2ccccc2c2c3c(c4c5ccccc5n(CCC#N)c4c21)CNC3=O
residual activity (INSR (human)): 89.3% | residual activity (NEK6 (human)): 103% | residual activity (DMPK (human)): 101% | residual activity (NTRK3 (human)): 0.198% | residual activity (PIM2 (human)): 101% | residual activity (MAP4K4 (human)): 0.433% | residual activity (MAPKAPK5 (human)): 127% | residual activity (AURKB (human)): 33.1% | residual activity (TXK (human)): 6.39% | residual activity (CDK7 CCNH MNAT1 (human)): 84.6% | residual activity (STK3 (human)): 3.07% | residual activity (AXL (human)): 102% | residual activity (AKT2 (human)): 110% | residual activity (CSNK1G2 (human)): 105% | residual activity (FES (human)): 78.4% | residual activity (EPHB4 (human)): 96.3% | residual activity (EPHA3 (human)): 97.9% | residual activity (CAMKK1 (human)): 19.3% | residual activity (DYRK1B (human)): 25.6% | residual activity (AURKA (human)): 56.8% | residual activity (TAOK1 (human)): 43.9% | residual activity (NUAK1 (human)): 3.86% | residual activity (MAP3K3 (human)): 5.86% | residual activity (FGFR1 (human)): 63.3% | residual activity (DAPK2 (human)): 84.4% | residual activity (AKT1 (human)): 108% | residual activity (TTK (human)): 69% | residual activity (MAPKAPK2 (human)): 109% | residual activity (MAPK12 (human)): 85.8% | residual activity (CAMK1G (human)): 101% | residual activity (STK16 (human)): 81.1% | residual activity (IRAK4 (human)): 63.5% | residual activity (FGR (human)): 70.7% | residual activity (PRKCB1 (human)): 18.7% | residual activity (PTK6 (human)): 38.7% | residual activity (DYRK2 (human)): 48.9% | residual activity (CSNK1G3 (human)): 137% | residual activity (MARK2 (human)): 11.8% | residual activity (STK4 (human)): 3.73% | residual activity (NEK3 (human)): 133% | residual activity (PRKCZ (human)): 87%
